Read-outs that look alike come from different tables or passages of the source.

For one series, the system named is MAT III. To be noted: cited from earlier work.
The subject of another series is MAT I. To be noted: cited from earlier work.
The target in series [1] is T1, MAT II from human leukemic cells (Homo sapiens, UniProt P31153).
T1 construct: MAT II from human leukemic cells expressing both the α and β subunits of the enzyme; host or cells: human leukemic cells
To be noted: cited from earlier work.

The next series has as its system MAT II. Put plainly: MAT activity and kinetics in extracts of transfected Cos-1 cells. The format is biochemical, African green monkey. To be noted: for Km: Cos-1 cells expressing high levels of rα2, two kinetic forms, read-out: Km for L-Met, lower-Km kinetic form. How it is done:
Transfection of Cos-1 cells with pTargeT™/MAT2A or pTargeT™/MAT2B was done using the cationic lipid reagent, Transfast™ (Promega). Preliminary experiments were carried out to optimize the transfection conditions. Typically, 1.5×10^6 cells were plated in 100 mm dish one day prior to transfection. For each plate, […] of vector DNA was applied in the ratio of 1:1 to Transfast™ in a protein-free medium for 2 h. For cells co-transfected with both α2 and β vectors, […] DNA from each was used. For each experiment, one untransfected plate served as a normal control, and a second plate was transfected with the pTargeT™ vector only (mock-transfected cells). After 48 h, cells were harvested by trypsinization with a solution containing 0.05% trypsin and 0.53 mM EDTA in Hank's balanced salt solution (HBSS, from Cellgro). Trypsinization was stopped by the addition of media supplemented with 10% FCS, cells were pelleted, washed three times in 1 ml HBSS, counted, then resuspended in 1× extraction buffer with protease inhibitors (50 mM Tris, pH 7.4, 100 mM NaCl, 5 mM MgCl2, 4 mM dithiothreitol, 0.1 IU/ml aprotinin, 0.5 mM PMSF and […] soybean trypsin inhibitor). Cells were lysed by three cycles of quick freezing and thawing, and the lysate was clarified by centrifugation at 15,000×g for 10 min at 4° C. If not immediately used; cell extracts were stored at −80° C. Protein assays were performed using the bicinchoninic acid reagent (Sigma) following the manufacturer instructions.
MAT activity in cell extracts was assayed as previously described (Kotb, M., and Kredich, N. M. (1985) J. Biol. Chem. 260, 3923-30). […] The concentration of L-Met was varied between […] using ^14C-L-Met (57.9 mCi/mmol) to a concentration of up to […], and supplementary with cold L-Met for higher concentrations.

For the compound `C[S+](CC[C@H](N)C(=O)[O-])C[C@H]1O[C@@H](n2cnc3c(N)ncnc32)[C@H](O)[C@@H]1O` (stereo partly shown) [AdoMet, S-adenosylmethionine, reference compound], the “effect of AdoMet on enzyme” value in the series with MAT III is “activated”; in the series with MAT I, “inhibited”. The “inhibition of enzyme activity” value in series [1] (25 μM AdoMet and 30 μM PPi) is 3 fold; in series [1] (25 μM AdoMet), approximately 2 fold.
By Km is commonly meant the substrate concentration at which the rate is half of its maximum. For “MAT I: hepatic MAT, tetramer of the α1 catalytic subunit”, in the series with MAT I (read-out: Km for L-Met), the Km is 3 to 14 µM.
As for “MAT III: hepatic MAT, dimer of the α1 catalytic subunit”, the Km in the series on MAT III (read-out: Km for L-Met) is 100 to 200 µM.
Regarding “recombinant human MAT II α2: recombinant catalytic α2 subunit of human MAT II, encoded by MAT2A, His-tagged”, the Km in the series on MAT II (listed as rMAT II α2 protein) came to 15.1 µM; with MAT II (listed as rα2) it was 15 µM. Also, the “effect on MAT (specific) activity” value in the series with MAT II (expression in Cos-1 cells, result in words) was “markedly increased”. The “increase in MAT activity” value in the series on MAT II (transfected Cos-1 cell extracts compared to untransfected (or mock-transfected) cells) was 3-4 fold.

(Values after patent US20040259198A1, “Purified and isolated mat II beta subunit nucleic acids and polypeptides and therapeutic and screening methods using same” (priority 1999, published 2004).)
